# Source: patent US10077288B2, “Hydroxystatin derivatives for the treatment of arthrosis” (Merck Patent GmbH, priority 2012, dated 2018)
# *1 amine or outer side, *2 acyl side, *3 side chain or, on linkers, in order; H or OH if unused. Where a SMILES comes first, the peptide text is derived from it. [ ]: non-standard residue; d: D form. The star is where a group is joined. Ahppa(3S,4S) = O=C(C[C@H](O)[C@H](Cc1ccccc1)N[*:1])[*:2]; PhAc = O=C(Cc1ccccc1)*; OBn = c1ccc(CO*)cc1
# Target: T1, cathepsin D isolated from the human liver (Homo sapiens, UniProt P07339)
# T1 construct: cathepsin D isolated from the human liver (Sigma-Aldrich); purchased Sigma-Aldrich; host or cells: human liver (tissue-derived, not recombinant)
# T1 sequence (P07339 65-161 limits assumed): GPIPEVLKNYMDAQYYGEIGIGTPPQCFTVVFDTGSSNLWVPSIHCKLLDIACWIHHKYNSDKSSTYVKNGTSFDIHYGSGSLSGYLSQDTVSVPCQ
# T1 sequence (P07339 169-412 limits assumed): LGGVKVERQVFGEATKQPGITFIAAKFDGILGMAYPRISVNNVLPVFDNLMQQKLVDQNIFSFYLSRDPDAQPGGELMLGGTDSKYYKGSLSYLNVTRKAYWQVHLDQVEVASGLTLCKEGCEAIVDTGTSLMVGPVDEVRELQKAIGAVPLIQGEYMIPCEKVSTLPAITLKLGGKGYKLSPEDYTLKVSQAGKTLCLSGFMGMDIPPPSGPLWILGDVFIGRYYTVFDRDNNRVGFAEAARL
# Assay: In-vitro fluorescence assay for identification of cathepsin D inhibitors
# Format: biochemical
# Conditions: human liver cathepsin D 1.4 nM, pH 5.5; read-out: CatD assay IC50-(M)
# Procedure: EXAMPLE 4: IN-VITRO FLUORESCENCE ASSAY FOR IDENTIFICATION OF CATHEPSIN D INHIBITORS
# In order to identify modulators of cathepsin D activity, a continuous enzymatic test was carried out with a synthetic peptide which carries a fluorescent group (MCA=(7-methoxycoumarin-4-yl)acetyl) which is quenched by energy transfer from a Dpn (2,4 dinitrophenyl) group on the same molecule, in Greiner 384-well nb microtitre plates. Cleavage of the peptidic substrate by cathepsin D causes an increase in the fluorescence intensity. In order to determine the efficacy of substances, the time-dependent increase in the fluorescence intensity in the presence of the substance was compared with the time-dependent increase in fluorescence in the absence of substances. The reference substance used was pepstatin A (Sigma-Aldrich). The substrate used was MCA-GKPILFFRLK(Dnp)d-R—NH2 (Enzo Life Sciences, Lörrach). The enzyme employed was cathepsin D isolated from the human liver (Sigma-Aldrich) in a final concentration of 1.4 nM. The test was carried out in 100 mM sodium acetate buffer, 1.25% (v/v) of DMSO, 0.25% (w/v) of Chaps, pH 5.5. 2 μl of each substance solution with serially diluted substance concentration were added to in each case 4 μl of cathepsin D solution and incubated at room temperature for 10 min. The reaction was started by addition of 2 μl of substrate solution (final concentration 5 μM). After carrying out a starting-point fluorescence measurement (excitation wavelength 340 nm/emission wavelength 450 nm) using an Envision multilabel reader (Perkin Elmer), the reaction was incubated at room temperature for 60 min. The amount of peptide fragment cleaved off during the reaction time was subsequently measured by determination of the increase in the fluorescence intensity at 450 nm (excitation wavelength 340 nm).
row,Structure (SMILES),IC50 [M]
1,CC[C@H](C)[C@H](NC(=O)C[C@H](O)[C@H](Cc1ccccc1)NC(=O)[C@@H](NC(=O)COc1ccc2ccccc2c1)C(C)C)C(=O)N[C@H](C(=O)OCc1ccccc1)C(C)C [Compound 7],3.5e-07
2,"CC[C@H](C)[C@H](NC(=O)C[C@H](O)[C@H](Cc1ccccc1)NC(=O)[C@@H](NC(=O)[C@H](CC(C)C)NC(=O)CC(C)C)C(C)C)C(=O)NC(C)(C)CCO [Compound 49, N-[(1S,2S)-1-(3-hydroxy-1,1-dimethylpropylcarbamoyl)-2-methylbutyl]-(3S,4S)-3-hydroxy-4-{(S)-3-methyl-2-[(S)-4-methyl-2-(3-methylbutyrylamino)pentanoylamino]butyrylamino}-5-phenylpentanamide]",2.1e-10
3,"CC[C@H](C)[C@H](NC(=O)C[C@H](O)[C@H](Cc1ccccc1)NC(=O)[C@@H](NC(=O)[C@@H](O)c1ccccc1)C(C)C)C(=O)N[C@H](C(=O)OCc1ccccc1)C(C)C [Compound 35, benzly (S)-2-((2S,3S)-2-{(3S,4S)-3-hydroxy-4-[(S)-2-((S)-2-hydroxy-2-phenylacetylamino)-3-methylbutyrylamino]-5-phenylpentanoylamino}-3-methylpentanoylamino)-3-methylbutyrate]",5.8e-07
4,"CC[C@H](C)[C@H](NC(=O)C[C@H](O)[C@H](Cc1ccccc1)NC(=O)[C@@H](NC(=O)Cc1cc(OC(F)(F)F)ccc1OC)C(C)C)C(=O)N[C@H](C(=O)O)C(C)C [Compound 24, (S)-2-[(2S,3S)-2-((3S,4S)-3-hydroxy-4-{(S)-2-[2-(2-methoxy-5-trifluoromethoxyphenyl)acetylamino]-3-methylbutyrylamino}-5-phenylpentanoylamino)-3-methylpentanoylamino]-3-methylbutyric acid]",1.1e-08
5,"CC[C@H](C)[C@H](NC(=O)C[C@H](O)[C@H](Cc1ccccc1)NC(=O)[C@@H](NC(=O)c1cccc(OC(C)(C)C)c1)C(C)C)C(=O)N[C@H](C(=O)O)C(C)C [Compound 26, (S)-2-((2S,3S)-2-{(3S,4S)-4-[(S)-2-(3-tert-butoxybenzoylamino)-3-methylbutyrylamino]-3-hydroxy-5-phenylpentanoylamino}-3-methylpentanoylamino)-3-methylbutyric acid]",1.2e-07
6,"CCCOc1cccc(CC(=O)N[C@H](C(=O)N[C@@H](Cc2ccccc2)[C@@H](O)CC(=O)N[C@H](C(=O)N[C@H](C(=O)O)C(C)C)[C@@H](C)CC)[C@@H](C)CC)c1 [Compound 40, (S)-2-[(2S,3S)-2-((3S,4S)-3-hydroxy-4-{(2S,3S)-3-methyl-2-[2-(3-propoxyphenyl)acetylamino]pentanoylamino}-5-phenylpentanoylamino)-3-methylpentanoylamino]-3-methylbutyric acid]",1.7e-08
7,"CCOc1cccc(CC(=O)N[C@H](C(=O)N[C@@H](Cc2ccccc2)[C@@H](O)CC(=O)N[C@H](C(=O)N[C@H](C(=O)OCc2ccccc2)C(C)C)[C@@H](C)CC)[C@@H](C)CC)c1 [Compound 34, benzly (S)-2-[(2S,3S)-2-((3S,4S)-4-{(S)-2-[2-(3-ethoxyphenyl)-acetylamino]-3-methyl-1-(S)-oxopentylamino}-3-hydroxy-5-phenylpentanoylamino)-3-methylpentanoylamino]-3-methylbutyrate]",2.7e-07
8,"CC[C@H](C)[C@H](NC(=O)C[C@H](O)[C@H](Cc1ccccc1)NC(=O)[C@@H](NC(=O)Cc1ccc(OC)c(OC)c1)C(C)C)C(=O)N[C@H](C(=O)OCc1ccccc1)C(C)C [Compound 10, benzly (S)-2-[(2S,3S)-2-((3S,4S)-4-{(S)-2-[2-(3,4-dimethoxyphenyl)-acetylamino]-3-methylbutyrylamino}-3-hydroxy-5-phenylpentanoylamino)-3-methylpentanoylamino]-3-methylbutyrate]",2.9e-08

# The next lines start with the values.
row,IC50 [M],Structure (SMILES)
1,2.1e-09,"CC[C@H](C)[C@H](NC(=O)C[C@H](O)[C@H](Cc1ccccc1)NC(=O)[C@@H](NC(=O)[C@H](CC(C)C)NC(=O)Cc1ccccc1)C(C)C)C(=O)N[C@H](C(=O)OCc1ccccc1)C(C)C [Compound 44, benzyl (S)-2-((2S,3S)-2-{(3S,4S)-3-hydroxy-4-[(S)-3-methyl-2-((S)-4-methyl-2-phenylacetylaminopentanoylamino)butyrylamino]-5-phenylpentanoylamino}-3-methylpentanoylamino)-3-methylbutyrate] (PhAc-LV[Ahppa(3S,4S)]IV-OBn)"
2,1.55e-08,"CCOc1cccc(CC(=O)N[C@H](C(=O)N[C@@H](Cc2ccccc2)[C@@H](O)CC(=O)N[C@H](C(=O)N[C@H](C(=O)O)C(C)C)[C@@H](C)CC)C(C)C)c1 [Compound 17, (S)-2-[(2S,3S)-2-((3S,4S)-4-{(S)-2-[2-(3-ethoxyphenyl)acetylamino]-3-methylbutyrylamino}-3-hydroxy-5-phenylpentanoylamino)-3-methylpentanoylamino]-3-methylbutyric acid]"
3,9e-08,"CC[C@H](C)[C@H](NC(=O)C[C@H](O)[C@H](Cc1ccccc1)NC(=O)[C@@H](NC(=O)Cc1ccc(OC)cc1)C(C)C)C(=O)N[C@H](C(=O)OCc1ccccc1)C(C)C [Compound 11, benzly (S)-2-[(2S,3S)-2-((3S,4S)-3-hydroxy-4-{(S)-2-[2-(4-methoxy-phenyl)acetylamino]-3-methylbutyrylamino}-5-phenylpentanoylamino)-3-methylpentanoylamino]-3-methylbutyrate]"
4,1.6e-08,"CC[C@H](C)[C@H](NC(=O)C[C@H](O)[C@H](Cc1ccccc1)NC(=O)[C@@H](NC(=O)C(c1ccccc1)c1ccccc1)C(C)C)C(=O)N[C@H](C(=O)O)C(C)C [Compound 33, (S)-2-{(2S,3S)-2-[(3S,4S)-4-((S)-2-diphenylacetylamino-3-methyl-butyrylamino)-3-hydroxy-5-phenylpentanoylamino]-3-methylpentanoylamino}-3-methylbutyric acid]"
5,8.1e-09,"CC[C@H](C)[C@H](NC(=O)C[C@H](O)[C@H](Cc1ccccc1)NC(=O)[C@@H](NC(=O)Cc1ccc2ccccc2c1)C(C)C)C(=O)N[C@H](C(=O)O)C(C)C [Compound 25, (S)-2-((2S,3S)-2-{(3S,4S)-3-hydroxy-4-[(S)-3-methyl-2-(2-naphthalen-2-ylacetylamino)butyrylamino]-5-phenylpentanoylamino}-3-methylpentanoylamino)-3-methylbutyric acid]"
6,2.5e-08,"CC[C@H](C)[C@H](NC(=O)C[C@H](O)[C@H](Cc1ccccc1)NC(=O)[C@@H](NC(=O)Cc1cccc(OC)c1)C(C)C)C(=O)N[C@H](C(=O)OCc1ccccc1)C(C)C [Compound 13, benzly (S)-2-[(2S,3S)-2-((3S,4S)-3-hydroxy-4-{(S)-2-[2-(3-methoxy-phenyl)acetylamino]-3-methylbutyrylamino}-5-phenylpentanoylamino)-3-methylpentanoylamino]-3-methylbutyrate]"
7,8.5e-08,"CC[C@H](C)[C@H](NC(=O)C[C@H](O)[C@H](Cc1ccccc1)NC(=O)[C@@H](NC(=O)Cc1cccc2ccccc12)C(C)C)C(=O)N[C@H](C(=O)O)C(C)C [Compound 30, (S)-2-((2S,3S)-2-{(3S,4S)-3-hydroxy-4-[(S)-3-methyl-2-(2-naphthalen-1-ylacetylamino)butyrylamino]-5-phenylpentanoylamino}-3-methylpentanoylamino)-3-methylbutyric acid]"
8,3.5e-10,"CC[C@H](C)[C@H](NC(=O)C[C@H](O)[C@H](Cc1ccccc1)NC(=O)[C@@H](NC(=O)[C@H](CC(C)C)NC(=O)Cc1ccccc1)C(C)C)C(=O)N[C@H](C(=O)O)C(C)C [Compound 45, (S)-2-((2S,3S)-2-{(3S,4S)-3-hydroxy-4-[(S)-3-methyl-2-((S)-4-methyl-2-phenylacetylaminopentanoylamino)butyrylamino]-5-phenylpentanoylamino}-3-methylpentanoylamino)-3-methylbutyric acid] (PhAc-LV[Ahppa(3S,4S)]IV-OH)"
9,6.5e-10,"CCC(CC)NC(=O)[C@@H](NC(=O)C[C@H](O)[C@H](Cc1ccccc1)NC(=O)[C@@H](NC(=O)[C@H](CC(C)C)NC(=O)CC(C)C)C(C)C)C(C)C [Compound 47, N—[(S)-1-(1-ethylpropylcarbamoyl)-2-methylpropyl]-(3S,4S)-3-hydroxy-4-{(S)-3-methyl-2-[(S)-4-methyl-2-(3-methylbutyrylamino)-pentanoylamino]butyrylamino}-5-phenylpentanamide]"
10,1.5e-07,"CC[C@H](C)[C@H](NC(=O)C[C@H](O)[C@H](Cc1ccccc1)NC(=O)[C@@H](NC(=O)Cc1ccc(OC)c(OC)c1)C(C)C)C(=O)N[C@H](C(=O)O)C(C)C [Compound 14, (S)-2-[(2S,3S)-2-((3S,4S)-4-{(S)-2-[2-(3,4-dimethoxyphenyl)acetylamino]-3-methylbutyrylamino}-3-hydroxy-5-phenylpentanoylamino)-3-methylpentanoylamino]-3-methylbutyric acid]"
